Results from paper PMC6632015, “Niosomal Nanocarriers for Enhanced Skin Delivery of Quercetin with Functions of Anti-Tyrosinase and Antioxidant” (Molecules, 2019).
Values after ≈ are worked out from the molar mass of the structure shown. One block for each compound: values may come before it.

Columns and labels:
[1] = DPPH radical scavenging activity; settings: DPPH 30 μg/mL, absorbance at 515 nm
Procedure: The antioxidant activity of flavonoids was measured by the bleaching rate of DPPH, reported by Blois. In its radical form, DPPH absorbs at the wavelength of 515 nm, but its absorption decreases upon reduction by an antioxidant or a radical compound. The DPPH radical scavenging activity of flavonoids was evaluated according to the method described by Rui Yang, with some modifications. Briefly, 5 mL of DPPH (30 μg/mL) was mixed with 0.1 mL of absolute ethyl alcohol and 0.1 mL of samples with different concentrations. Then, the absorbance of the mixtures was determined at 515 nm. The DPPH radical scavenging activity was calculated as follows: (2) DPPH radical scavenging activity = A0−Ai/A0×100% where A0 and Ai denote the absorbance at 515 nm of the control (DPPH mixed with absolute ethyl alcohol) and the test samples (DPPH mixed with flavonoids).

tyrosinase = assay: In vitro tyrosinase inhibition (dopachrome formation at 493 nm, L-tyrosine substrate); assay type: biochemical; settings: for IC50 anti-tyrosinase activity: tyrosinase 120 unites/mL, phosphate buffer pH 6.8, 30 °C, L-tyrosine
Procedure: The tyrosinase inhibition assay was performed based on a previous study with slight modification. The activity of tyrosinase inhibition was determined using a spectrophotometer by monitoring dopachrome formation at 493 nm. […] After incubation at 30 °C for 10 min, 0.5 mL of L-tyrosine was added to the systems. The reaction systems were incubated at 30 °C for 20 min and absorbance was determined at 493 nm. […] The degree of inhibition of the sample was expressed as 50% inhibition concentration (IC50).
The inhibitory effects of the test samples were expressed as the percentage of tyrosinase inhibition as follows:(1) Tyrosinase inhibition=(A−B)−(C−D)/(A−B)×100% where A and B denote the absorbance at 493 nm of the mixture without the test sample (L-tyrosine mixed with the enzyme in the buffer; the control) and without the test sample or the enzyme (L-tyrosine in the buffer; the blank), respectively; C and D denote those with the test sample and enzyme (L-tyrosine mixed with the enzyme and test sample in the buffer; the reaction mixture) and without the enzyme (L-tyrosine mixed with the test sample in the buffer; the blank version of C).

[2] = Solubility of quercetin in different release medium; assay type: physicochemical
Procedure: An aqueous solutions of 15 mL of Tween80 and SDS at different concentrations and excess quercetin were placed into each of the vials. Vials were shaken in a 32 °C water bath for 24 h. After 24 h, 5 mL suspension was centrifuged at 3000 rmp for 15 min and 0.2 mL of the supernatant was diluted to 2 mL and determined using HPLC.

[3] = Water solubility of quercetin and solubility in niosomes; assay type: physicochemical
Procedure: The water solubility of quercetin was measured with 15 mL of purified water, phosphate buffers with different pH values (pH 5.0, 6.0, 6.8, 7.4, 8.0), and excess quercetin, and placed into vials. The vials were shaken for 24 h in a 37 °C water bath and the supernatant was determined by HPLC after centrifugation.

[4] = Ex vivo drug permeation through rat abdominal skin (transdermal diffusion device); assay type: in vitro ADME; settings: 0.6% Tween80 receptor medium, up to 24 h
Procedure: Rats were sacrificed by cervical dislocation, hair on the abdomen was shaved, and then abdominal skin was separated and placed into physiological saline. Afterward, subcutaneous tissue (muscle, fat, and vascellum) was removed using surgical scissors and hemostatic forceps and then stored at 4 °C with physiological saline for further investigation. […] Then, 0.6% Tween80 solution was selected as the penetration release medium. Skin tissues were placed between the diffusion cell and receptor cell, and 0.4 mL of quercetin preparations (equivalent to 120 μg of quercetin) was applied on the skin. Penetration medium (0.5 mL) was withdrawn from the receptor cell at 1, 2, 4, 6, 8, 10, 12, and 24 h with the replacement of fresh penetration medium (0.5 mL). Penetration mediums withdrawn at different timepoints were diluted to 7 mL with methanol and determined by HPLC after centrifugation and filtration.

Compound: O=C(O)[C@H]1O[C@@H](Oc2cc3oc(-c4ccc(O)cc4)cc(=O)c3c(O)c2O)[C@H](O)[C@@H](O)[C@@H]1O [Breviscapine]
- EC50 DPPH radical scavenging activity [1]: 368.08 ± 1.04 µg/mL (≈ 796 µM)
- anti-tyrosinase activity (in words) (tyrosinase): no promising anti-tyrosinase activity
- IC50 anti-tyrosinase activity (tyrosinase): >1000 µg/mL

Compound: Cc1cc(C(C)(C)C)c(O)c(C(C)(C)C)c1 [Butylated hydroxytoluene (BHT), Butylated hydroxytoluene, reference compound]
- EC50 DPPH radical scavenging activity [1]: 358.15 ± 1.43 µg/mL (≈ 1630 µM)

Compound: O=c1c(O)c(-c2ccc(O)c(O)c2)oc2cc(O)ccc12 [Festin]
- EC50 DPPH radical scavenging activity [1]: 83.19 ± 0.33 µg/mL (≈ 291 µM)
- IC50 anti-tyrosinase activity (tyrosinase): 23.10 ± 0.32 µg/mL (≈ 80.7 µM)

Compound: O=c1c(O)c(-c2ccc(O)cc2O)oc2cc(O)cc(O)c12 [Morin]
- EC50 DPPH radical scavenging activity [1]: 123.06 ± 0.48 µg/mL (≈ 407 µM)
- IC50 anti-tyrosinase activity (tyrosinase): 4.26 ± 0.47 µg/mL (≈ 14.1 µM)

Compound: O=c1c(O)c(-c2ccc(O)c(O)c2)oc2cc(O)cc(O)c12 [Quercetin]
- Solubility in Tween80 Aqueous Solution ([2]; 0.1% Tween80, 32 °C, 24 h): 12.19 ± 1.05 µg/mL (≈ 40.3 µM)
- solubility at 24 h ([2]; 0.2% SDS aqueous solution, 0.2% SDS, 32 °C, 24 h, read-out: Solubility in SDS Aqueous Solution): 4.58 ± 0.04 µg/mL (≈ 15.2 µM)
- solubility at 24 h ([2]; 0.2% Tween80 aqueous solution, 32 °C, aqueous with cosolvent or surfactant or cyclodextrin, thermodynamic from solid, 0.2% Tween80, 32 °C, 24 h, read-out: Solubility in Tween80 Aqueous Solution): 24.7 ± 2.15 µg/mL (≈ 81.8 µM)
- solubility at 24 h ([2]; 0.3% Tween80 aqueous solution, 0.3% Tween80, 32 °C, 24 h, read-out: Solubility in Tween80 Aqueous Solution): 31.4 ± 0.73 µg/mL (≈ 104 µM)
- Solubility in SDS Aqueous Solution ([2]; 0.4% SDS, 32 °C, 24 h): 4.22 ± 0.43 µg/mL (≈ 14 µM)
- solubility at 24 h ([2]; 0.4% Tween80 aqueous solution, 0.4% Tween80, 32 °C, 24 h, read-out: Solubility in Tween80 Aqueous Solution): 41.34 ± 0.19 µg/mL (≈ 137 µM)
- solubility at 24 h ([2]; 0.6% SDS aqueous solution, 32 °C, aqueous with cosolvent or surfactant or cyclodextrin, thermodynamic from solid, 0.6% SDS, 32 °C, 24 h, read-out: Solubility in SDS Aqueous Solution): 6.48 ± 0.44 µg/mL (≈ 21.4 µM)
- solubility at 24 h ([2]; 0.6% Tween80 aqueous solution, 0.6% Tween80, 32 °C, 24 h, read-out: Solubility in Tween80 Aqueous Solution): 56.4 ± 1.42 µg/mL (≈ 186 µM)
- Solubility in pH-0.8%Tween80 Aqueous Solution ([2]; 0.8% Tween80, pH 5.0): 79.49 ± 0.41 μg/mL
- solubility at 24 h ([2]; 0.8% Tween80 aqueous solution, 32 °C, aqueous with cosolvent or surfactant or cyclodextrin, thermodynamic from solid, 0.8% Tween80, 32 °C, 24 h, read-out: Solubility in Tween80 Aqueous Solution): 76.1 ± 3.11 µg/mL (≈ 252 µM)
- solubility at 24 h ([2]; 0.8% Tween80 aqueous solution, 32 °C, pH 5, aqueous with cosolvent or surfactant or cyclodextrin, thermodynamic from solid, 0.8% Tween80, pH 5.0, read-out: Solubility in pH-0.8%Tween80 Aqueous Solution): 76.1 ± 3.11 µg/mL (≈ 252 µM)
- solubility at 24 h ([2]; 0.8% Tween80 aqueous solution, 32 °C, pH 6.8, aqueous with cosolvent or surfactant or cyclodextrin, thermodynamic from solid, 0.8% Tween80, pH 6.8, read-out: Solubility in pH-0.8%Tween80 Aqueous Solution): 52.4 ± 0.71 µg/mL (≈ 173 µM)
- solubility at 24 h ([2]; 0.8% Tween80 aqueous solution, pH 7.4, 0.8% Tween80, pH 7.4, read-out: Solubility in pH-0.8%Tween80 Aqueous Solution): 55 ± 6.6 µg/mL (≈ 182 µM)
- solubility in niosomes, fold higher than in water [3]: 1247 fold
- solubility at 24 h ([3]; 37 °C, water, thermodynamic from solid): 0.21 ± 0.14 µg/mL (≈ 0.695 µM)
- Solubility ([3]; medium: niosomes, from 300 μg/mL loaded and entrapment 87.3 ± 1.6%): 261.9 ± 4.8 µg/mL (≈ 867 µM)
- EC50 DPPH radical scavenging activity [1]: 80.75 ± 0.26 µg/mL (≈ 267 µM)
- IC50 anti-tyrosinase activity (tyrosinase): 1.59 ± 0.38 µg/mL (≈ 5.26 µM)
- quercetin in the penetration release medium (ex vivo penetration) [4]: could not be determined

More lines, now with the values ahead:

- EC50 DPPH radical scavenging activity [1]: 118.63 ± 0.57 µg/mL (≈ 373 µM)
- anti-tyrosinase activity (in words) (tyrosinase): no the anti-tyrosinase activity
Compound: O=c1c(O)c(-c2cc(O)c(O)c(O)c2)oc2cc(O)cc(O)c12 [Myricetin]

- EC50 DPPH radical scavenging activity [1]: 188.28 ± 0.68 µg/mL (≈ 308 µM)
- anti-tyrosinase activity (in words) (tyrosinase): no promising anti-tyrosinase activity
- IC50 anti-tyrosinase activity (tyrosinase): >1000 µg/mL
Compound: C[C@@H]1O[C@@H](OC[C@H]2O[C@@H](Oc3c(-c4ccc(O)c(O)c4)oc4cc(O)cc(O)c4c3=O)[C@H](O)[C@@H](O)[C@@H]2O)[C@H](O)[C@H](O)[C@H]1O [Rutin]
